Results published in patent US20160137639A1, “TRIAZOLE-ISOXAZOLE COMPOUND AND MEDICAL USE THEREOF” (JAPAN TOBACCO INC., priority 2012, published 2016).
Where two headings read alike, the source gives them in different places.

Columns and labels:
human RORγ = target: T1, human RORγ (Homo sapiens, UniProt P51449); assay: Luciferase reporter gene assay of inhibitory effect against RORγ transcriptional activity (GAL4-hRORγ plasmid in CHO cells); assay type: cell-based
T1 construct: human, NM_005060.3 and from Ser253 to Lys518; expressed in transfected cells; host or cells: CHO cells (transient co-transfection with pG5-Luc reporter)
T1 sequence (P51449 253-518): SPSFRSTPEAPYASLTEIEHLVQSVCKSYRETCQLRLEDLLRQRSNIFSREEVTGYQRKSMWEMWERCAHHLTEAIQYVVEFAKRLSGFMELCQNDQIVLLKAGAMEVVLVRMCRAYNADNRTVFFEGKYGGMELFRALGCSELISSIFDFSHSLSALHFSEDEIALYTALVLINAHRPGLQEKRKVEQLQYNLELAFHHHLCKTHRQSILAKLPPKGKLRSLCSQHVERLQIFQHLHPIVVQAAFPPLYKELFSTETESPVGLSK

mouse RORγ = target: T2, mouse RORγ (Mus musculus, UniProt P51450); assay: Luciferase reporter gene assay of inhibitory effect against RORγ transcriptional activity (GAL4-mRORγ plasmid in CHO cells); assay type: cell-based
T2 construct: mouse, NM_011281.2 and from Ile251 to Lys516; expressed in transfected cells; host or cells: CHO cells (transient co-transfection with pG5-Luc reporter)
T2 sequence (P51450 251-516): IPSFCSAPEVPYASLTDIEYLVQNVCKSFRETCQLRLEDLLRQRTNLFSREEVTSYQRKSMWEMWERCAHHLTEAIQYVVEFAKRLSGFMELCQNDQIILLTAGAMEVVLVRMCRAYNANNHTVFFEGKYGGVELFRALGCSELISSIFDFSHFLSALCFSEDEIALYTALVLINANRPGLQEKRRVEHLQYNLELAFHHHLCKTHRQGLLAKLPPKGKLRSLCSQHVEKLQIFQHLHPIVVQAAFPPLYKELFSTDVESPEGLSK
Procedure, shortened: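 CHO cells transiently co-transfected with GAL4-mouse RORγ LBD (Ile251–Lys516) and GAL4-dependent luciferase reporter; eight compound concentrations, 0.1% DMSO, 2 days at 37 °C. Luminescence as %-of-vehicle control; EC50 by curve fit, cytotoxic concentrations excluded.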

Row | Structure (SMILES) | EC50 (human RORγ; read-out: LUC EC50 (μM) hRORg) [µM] | EC50 (mouse RORγ; read-out: LUC EC50 (μM) mRORg) [µM] | EC50 (human RORγ; read-out: LUC EC50 hRORg) [µM] | EC50 (mouse RORγ; read-out: LUC EC50 mRORg) [µM]
1 | Cc1ccc(NC(=O)[C@H]2CCN(C)C[C@@H]2c2nnc(CCCC(C)(C)C)n2C2CC2)c(C)c1 (racemic) [Example F-395] | < 3 | < 3 |  | 
2 | Cc1ccc(NC(=O)CCc2nnc(CCC3CCCCC3)n2C2CC2(F)F)c(C)c1 (racemic) [Example F-211] | < 3 | < 3 |  | 
3 | Cc1ccc(NC(=O)CC(CC(N)=O)c2nnc(CCCC(C)C)n2C2CC2)c(C)c1 (racemic) [Example F-253] | > 3 | > 3 |  | 
4 | Cc1ccc(NC(=O)CC(CC(=O)OC(C)(C)C)c2nnc([C@H]3C[C@@H](CC(C)C)C3)n2C2CC2)c(C)c1 (mixture of isomers) [Example F-498] |  |  | < 3 | < 3
5 | C=CC[C@H](CC(=O)Nc1ccc(C)cc1C)c1nnc(CCCC(C)(C)C)n1C1CC1 [Example F-381] | > 3 | < 3 |  | 
6 | Cc1ccc(CNC(=O)CCc2nnc(CCC(C)C)n2C2CC2)cc1 [Example F-61] | > 3 | > 3 |  | 
7 | CCC(C)CCc1nnc(CCC(=O)Nc2cccc(Cl)c2C)n1C1CC1 (racemic) [Example F-235] | < 3 | < 3 |  | 
8 | Cc1ccccc1CCNC(=O)CCc1nnc(CCC(C)C)n1C1CC1 [Example F-116] | > 3 | > 3 |  | 
9 | CCn1c(CCCC(C)(C)C)nnc1[C@@H]1[C@@H](C(=O)Nc2ccc(C)cc2C)CCN1C(C)=O [Example F-369] | < 3 | < 3 |  | 
10 | Cc1ccc(NC(=O)C[C@H](CCC(=O)O)c2noc(-c3cc(C4CC(C)(C)C4)on3)c2C2CC2)c(Cl)c1 [Example E-30] | < 3 | < 3 |  | 
11 | CC(C)CCc1nnc(CCC(=O)NC2CCc3ccccc32)n1C1CC1 (racemic) [Example F-83] | > 3 | > 3 |  | 
12 | Cc1ccc(NC(=O)C[C@H](CCC(=O)O)c2noc(-c3cc(CC(C)C)on3)c2C2CC2)c(F)c1 [Example E-03] | < 3 | < 3 |  | 
13 | CC(C)(C)Cc1cc(-c2onc([C@@H](CCC(=O)O)CC(=O)Nc3ccc(Cl)cc3F)c2C2CC2)no1 [Example E-56] | < 3 | < 3 |  | 
14 | Cc1ccc(NC(=O)C[C@H](CCC(=O)O)c2noc(-c3cc(C(F)(F)CC(C)C)on3)c2C2CC2)c(Cl)c1 [Example E-33] | < 3 | < 3 |  | 
15 | Cc1ccc(NC(=O)CCc2nnc([C@H]3C[C@H](CC4CCCC4)C3)n2C2CC2)c(C)c1 [Example F-423] | < 3 | < 3 |  | 
16 | Cc1ccc(NC(=O)C[C@H](CCC(=O)O)c2noc3c2C(C)CCC3CCC(C)C)c(Cl)c1 (single isomer, unassigned) [Example F-694] |  |  | < 3 | < 3
17 | Cc1cnc(NC(=O)C[C@H](CCC(=O)O)c2noc([C@H]3C[C@@H](CC(C)(C)C)C3)c2C2CC2)c(C)c1 [Example F-681] |  |  | < 3 | < 3
18 | CC(C)CCc1nnc(CCC(=O)NCc2ccccc2C(F)(F)F)n1C1CC1 [Example F-130] | > 3 | > 3 |  | 
19 | Cc1ccc(NC(=O)C[C@H](CCC(=O)O)c2noc3c2C(C)CCC3CCC(C)C)c(Cl)c1 (single isomer, unassigned) [Example F-693] |  |  | < 3 | < 3
20 | Cc1c(NC(=O)C[C@H](OCC(F)(F)F)c2nnc(-c3cc(CC(C)C)on3)n2C2CC2)ccc(F)c1F [Example F-633] |  |  | < 3 | < 3
21 | Cc1c(F)ccc(NC(=O)C[C@H](OCC(F)(F)F)c2nnc(-c3cc(CC(C)C)on3)n2C2CC2)c1C [Example F-634] |  |  | < 3 | < 3
22 | Cc1ccc(NC(=O)CC(CC(=O)N2CC[C@H](O)C2)c2nnc([C@H]3C[C@@H](CC(C)C)C3)n2C2CC2)c(C)c1 (mixture of isomers) [Example F-503] |  |  | > 3 | > 3
23 | COc1cc(C)ccc1CNC(=O)CC(CCO)c1nnc(CCC2CCCCC2)n1C1CC1 (racemic) [Example F-249] | < 3 | < 3 |  | 
24 | Cc1c(F)cccc1NC(=O)CCc1nnc(CCC(C)C)n1C1CC1 [Example F-101] | > 3 | > 3 |  | 
25 | Cc1c(Cl)cccc1NC(=O)CCc1nnc(CC[C@H]2CC[C@H](C(=O)O)CC2)n1C1CC1 [Example F-243] | < 3 | > 3 |  | 
26 | CC(C)(C)C(F)(F)c1cc(-c2onc([C@@H](CCC(=O)O)CC(=O)Nc3ccc(Cl)cc3F)c2C(F)F)no1 [Example E-62, Sodium (S)-5-(4-chloro-2-fluoro-phenylcarbamoyl)-4-[5-(1,1-difluoro-2,2-dimethylpropyl)-4′-difluoromethyl-[3,5′]biisoxazolyl-3′-yl]-pentanoate] | < 3 | < 3 |  | 

Row | Structure (SMILES) | EC50 (human RORγ; read-out: LUC EC50 (μM) hRORg) [µM] | EC50 (mouse RORγ; read-out: LUC EC50 (μM) mRORg) [µM] | EC50 (human RORγ; read-out: LUC EC50 hRORg) [µM] | EC50 (mouse RORγ; read-out: LUC EC50 mRORg) [µM]
27 | CCn1c(CCC(=O)Nc2cccc3c2CCCC3)nnc1C1Cc2ccccc2C1 [Example F-7] | > 3 | < 3 |  | 
28 | Cc1cnccc1NC(=O)CCc1nnc(CCC(C)C)n1C1CC1 [Example F-89] | > 3 | > 3 |  | 
29 | Cc1c(Cl)cccc1CNC(=O)CCc1nnc(CCC(C)C)n1C1CC1 [Example F-123] | > 3 | > 3 |  | 
30 | CC(=O)N1C[C@H](C(=O)Nc2ccc(C)cc2C)[C@@H](c2nnc(-c3cc(CC(C)C)no3)n2C2CC2)C1 [Example F-506] |  |  | < 3 | < 3
31 | CCn1c(C2Cc3ccccc3C2)nnc1[C@H](C)CC(=O)Nc1cccc2ccccc12 [Example F-2] | < 3 | < 3 |  | 
32 | Cc1ccc(NC(=O)[C@H]2CNC[C@@H]2c2nnc(CCCC(C)(C)C)n2C2CC2)c(C)c1 (racemic) [Example F-449] | > 3 | > 3 |  | 
33 | C=CCC(CC(=O)Nc1cccc(Cl)c1C)c1nnc(CCC(C)C)n1C1CC1 (racemic) [Example F-193] | < 3 | < 3 |  | 
34 | Cc1ccc(NC(=O)CCc2nnc(COC(C)(C)C)n2C2CC2)c(C)c1 [Example F-97] | > 3 | > 3 |  | 
35 | Cc1ccc(NC(=O)C2CN(CC(=O)O)CC2c2noc([C@H]3C[C@@H](CC(C)(C)C)C3)c2C2CC2)c(Cl)c1 (stereo partly drawn) [Example F-687] |  |  | < 3 | < 3
36 | CCn1c(CCC(=O)NCc2ccccc2C)nnc1CCC1CCCCC1 [Example F-41] | < 3 | < 3 |  | 
37 | Cc1ccc(NC(=O)C[C@H](CCC(=O)O)c2noc(-c3cc(CC(C)(C)C)on3)c2C2CC2)c(F)c1 [Example E-65] | < 3 | < 3 |  | 
38 | CC(=O)N(C)[C@@H](CC(=O)Nc1ccc(C)cc1C)c1nnc(CCCC(C)(C)C)n1C1CC1 [Example F-354] | < 3 | < 3 |  | 
39 | Cc1cc(NC(=O)C[C@H](CC(=O)O)c2noc([C@H]3C[C@@H](CC(C)C)C3)c2C2CC2)no1 [Example F-670] |  |  | > 3 | < 3
40 | COc1cc(C)ccc1CNC(=O)CCc1nnc(CCCC(C)C)n1C1CC1 [Example F-217] | < 3 | < 3 |  | 
41 | CC(=O)N1C[C@H](C(=O)Nc2ccc(C)cc2C)[C@@H](c2nnc(C(O)CCC(C)(C)C)n2C2CC2)C1 (single isomer, unassigned) [Example F-349] | > 3 | > 3 |  | 
42 | COc1ccccc1CNC(=O)CCc1nnc(CCC(C)C)n1C1CC1 [Example F-179] | > 3 | > 3 |  | 
43 | Cc1ccc(NC(=O)C[C@H](CCCO)c2noc([C@H]3C[C@@H](CC(C)(C)C)C3)c2C2CC2)c(Cl)c1 [Example F-672] |  |  | < 3 | < 3
44 | CC(C)CCc1nnc(CCC(=O)Nc2cccc(Cl)c2F)n1C1CC1 [Example F-100] | > 3 | > 3 |  | 
45 | CC(=O)N1C[C@H](C(=O)Nc2ccc(C)cc2C)[C@@H](c2nnc(-c3cc(CC(C)C)on3)n2C2CC2)C1 [Example F-408] | < 3 | < 3 |  | 
46 | CCn1c(CCC(=O)Nc2cccc3ccccc23)nnc1C1CCCCC1 [Example F-20] | > 3 | > 3 |  | 
47 | CC(=O)N1C[C@H](C(=O)Nc2ccc(C)cc2C)[C@@H](c2nnc(C3CN(C(=O)CC(C)(C)C)C3)n2C2CC2)C1 (racemic) [Example F-417] | > 3 | > 3 |  | 
48 | CCn1c(C2Cc3ccccc3C2)nnc1[C@H]1C[C@@H]1C(=O)Nc1cccc2ccccc12 (racemic) [Example F-26] | > 3 | > 3 |  | 
49 | Cc1c(CO)cccc1NC(=O)CCc1nnc(CCC(C)C)n1C1CC1 [Example F-87] | > 3 | > 3 |  | 
50 | Cc1ccc(NC(=O)C[C@H](CCC(=O)O)c2noc(-c3noc(CCC(C)C)c3Cl)c2C2CC2)c(Cl)c1 [Example E-10] | < 3 | < 3 |  | 
51 | CCn1c(C(C)CC(=O)Nc2cccc3ccccc23)nnc1C1Cc2ccccc2C1 (racemic) [Example F-33] | < 3 | < 3 |  | 
